± gives the expanded uncertainty stated by the source.
What was measured:
[1] = wn = mass fraction of the nth substance listed; conditions: 101 kPa, Liquid
[2] = 101 kPa, Liquid

CN(CCO)CCO [N-methyldiethanolamine] + O
[1]
Conditions | mass density, w1 = 0.1 [kg/m3] | mass density, w1 = 0.2 [kg/m3] | mass density, w1 = 0.3 [kg/m3] | mass density, w1 = 1 [kg/m3] | viscosity, w1 = 0.1 [mPa·s] | viscosity, w1 = 0.2 [mPa·s] | viscosity, w1 = 0.3 [mPa·s] | viscosity, w1 = 1 [mPa·s]
288 K | 1007.9 ± 2.2 | 1016.7 ± 2.3 | 1030.7 ± 2.4 | 1044.1 ± 3.6 | 1.703 ± 0.12 | 2.624 ± 0.18 | 4.399 ± 0.29 | 142.02 ± 31
313 K | 1000.4 ± 2.4 | 1008.6 ± 2.5 | 1019.3 ± 2.6 | 1027.2 ± 3.7 | 0.899 ± 0.068 | 1.305 ± 0.095 | 1.929 ± 0.14 | 34.73 ± 2.2
333 K | 990.2 ± 2.7 | 999.5 ± 2.7 | 1007.1 ± 2.8 | 1012.6 ± 3.8 | 0.63 ± 0.05 | 0.86 ± 0.066 | 1.218 ± 0.09 | 14.66 ± 0.95

OCCC1CCCCN1 (stereo not given) [2-(2-hydroxyethyl)piperidine] + O
[1]
Conditions | mass density [kg/m3] | viscosity [mPa·s]
288 K, w1 = 0.05 | 1001.8 ± 2.2 | 1.364 ± 0.098
288 K, w1 = 0.1 | 1004.7 ± 2.2 | 1.775 ± 0.12
288 K, w1 = 0.15 | 1005 ± 2.3 | 2.313 ± 0.16
288 K, w1 = 0.2 | 1011.1 ± 2.3 | 2.935 ± 0.2
288 K, w1 = 0.25 | 1014.5 ± 2.3 | 3.921 ± 0.26
288 K, w1 = 0.3 | 1017.3 ± 2.4 | 5.218 ± 0.34
293 K, w1 = 0.05 | 1000.1 ± 2.1 | 1.298 ± 0.094
293 K, w1 = 0.1 | 1002.3 ± 2.1 | 1.655 ± 0.12
293 K, w1 = 0.15 | 1003.2 ± 2.1 | 2.097 ± 0.15
293 K, w1 = 0.2 | 1008.3 ± 2.2 | 2.696 ± 0.18
293 K, w1 = 0.25 | 1012.5 ± 2.2 | 3.506 ± 0.24
293 K, w1 = 0.3 | 1014.9 ± 2.3 | 4.697 ± 0.31
298 K, w1 = 0.05 | 998.9 ± 2.2 | 1.116 ± 0.082
298 K, w1 = 0.1 | 1001.6 ± 2.2 | 1.423 ± 0.1
298 K, w1 = 0.15 | 1002.4 ± 2.2 | 1.762 ± 0.12
298 K, w1 = 0.2 | 1005.9 ± 2.3 | 2.289 ± 0.16
298 K, w1 = 0.25 | 1010.1 ± 2.3 | 2.968 ± 0.2
298 K, w1 = 0.3 | 1012.7 ± 2.4 | 3.858 ± 0.26
303 K, w1 = 0.05 | 997.6 ± 2.2 | 1.064 ± 0.078
303 K, w1 = 0.1 | 999.6 ± 2.3 | 1.316 ± 0.095
303 K, w1 = 0.15 | 1001.4 ± 2.3 | 1.599 ± 0.11
303 K, w1 = 0.2 | 1003.7 ± 2.3 | 2.037 ± 0.14
303 K, w1 = 0.25 | 1007.5 ± 2.4 | 2.603 ± 0.18
303 K, w1 = 0.3 | 1009.6 ± 2.4 | 3.429 ± 0.23
308 K, w1 = 0.05 | 996 ± 2.3 | 0.959 ± 0.072
308 K, w1 = 0.1 | 997.4 ± 2.3 | 1.216 ± 0.089
308 K, w1 = 0.15 | 998.9 ± 2.4 | 1.489 ± 0.11
308 K, w1 = 0.2 | 1001.7 ± 2.4 | 1.869 ± 0.13
308 K, w1 = 0.25 | 1003.1 ± 2.5 | 2.382 ± 0.17
308 K, w1 = 0.3 | 1006.4 ± 2.5 | 3.069 ± 0.21
313 K, w1 = 0.05 | 994.3 ± 2.4 | 0.828 ± 0.063
313 K, w1 = 0.1 | 996.5 ± 2.4 | 1.015 ± 0.076
313 K, w1 = 0.15 | 997.9 ± 2.4 | 1.253 ± 0.091
313 K, w1 = 0.2 | 999.3 ± 2.5 | 1.511 ± 0.11
313 K, w1 = 0.25 | 999.9 ± 2.5 | 1.938 ± 0.14
313 K, w1 = 0.3 | 1001.8 ± 2.6 | 2.468 ± 0.17
318 K, w1 = 0.05 | 992.4 ± 2.5 | 0.776 ± 0.06
318 K, w1 = 0.1 | 994.2 ± 2.5 | 0.965 ± 0.072
318 K, w1 = 0.15 | 995.5 ± 2.5 | 1.156 ± 0.085
318 K, w1 = 0.2 | 996.7 ± 2.5 | 1.429 ± 0.1
318 K, w1 = 0.25 | 998.8 ± 2.5 | 1.795 ± 0.13
318 K, w1 = 0.3 | 1000.2 ± 2.6 | 2.229 ± 0.15
323 K, w1 = 0.05 | 990.3 ± 2.5 | 0.684 ± 0.054
323 K, w1 = 0.1 | 991.7 ± 2.5 | 0.828 ± 0.063
323 K, w1 = 0.15 | 993.5 ± 2.6 | 0.995 ± 0.074
323 K, w1 = 0.2 | 994.7 ± 2.6 | 1.193 ± 0.087
323 K, w1 = 0.25 | 996.1 ± 2.6 | 1.523 ± 0.11
323 K, w1 = 0.3 | 997.3 ± 2.7 | 1.891 ± 0.13
328 K, w1 = 0.05 | 987.7 ± 2.6 | 0.651 ± 0.052
328 K, w1 = 0.1 | 988.7 ± 2.6 | 0.778 ± 0.06
328 K, w1 = 0.15 | 990.6 ± 2.6 | 0.975 ± 0.073
328 K, w1 = 0.2 | 991.9 ± 2.7 | 1.173 ± 0.086
328 K, w1 = 0.25 | 993 ± 2.7 | 1.39 ± 0.1
328 K, w1 = 0.3 | 994.3 ± 2.7 | 1.769 ± 0.12
333 K, w1 = 0.05 | 983.5 ± 2.7 | 0.585 ± 0.048
333 K, w1 = 0.1 | 985.9 ± 2.7 | 0.695 ± 0.055
333 K, w1 = 0.15 | 987.9 ± 2.7 | 0.837 ± 0.064
333 K, w1 = 0.2 | 988.7 ± 2.7 | 1.013 ± 0.076
333 K, w1 = 0.25 | 990.3 ± 2.8 | 1.229 ± 0.09
333 K, w1 = 0.3 | 991.3 ± 2.8 | 1.536 ± 0.11

CN(CCO)CCO [N-methyldiethanolamine]
[2]
Conditions | mass density [kg/m3] | viscosity [mPa·s]
288 K | 1044.1 ± 3.6 | 142.02 ± 31
313 K | 1027.2 ± 3.7 | 34.73 ± 2.2
333 K | 1012.6 ± 3.8 | 14.66 ± 0.95
